Source: ChEMBL document CHEMBL1143380, “N-[6-amino-2-(heteroaryl)pyrimidin-4-yl]acetamides as A2A receptor antagonists with improved drug like properties and in vivo efficacy” (J Med Chem, 2009)
Values after ≈ are worked out from the molar mass of the structure shown.

Tests used:
[1] = Plasma concentration in rat at 30 mg/kg, po after 2 hrs; type: ADME, organism-based; set-up: dose 30 mg/kg, route oral
[2] = Ratio of drug level in brain to plasma in rat at 3 mg/kg, po after 2 hrs; type: ADME, organism-based; set-up: dose 3 mg/kg, route oral; conditions: brain and plasma
Adenosine receptor A2a [3] = biological target: T1, Adenosine receptor A2a (Homo sapiens, UniProt P29274); test: Antagonist activity at human adenosine A2A receptor assessed as inhibition of CGS-21680-stimulated cAMP production; type: functional
T1 sequence (P29274 whole entry): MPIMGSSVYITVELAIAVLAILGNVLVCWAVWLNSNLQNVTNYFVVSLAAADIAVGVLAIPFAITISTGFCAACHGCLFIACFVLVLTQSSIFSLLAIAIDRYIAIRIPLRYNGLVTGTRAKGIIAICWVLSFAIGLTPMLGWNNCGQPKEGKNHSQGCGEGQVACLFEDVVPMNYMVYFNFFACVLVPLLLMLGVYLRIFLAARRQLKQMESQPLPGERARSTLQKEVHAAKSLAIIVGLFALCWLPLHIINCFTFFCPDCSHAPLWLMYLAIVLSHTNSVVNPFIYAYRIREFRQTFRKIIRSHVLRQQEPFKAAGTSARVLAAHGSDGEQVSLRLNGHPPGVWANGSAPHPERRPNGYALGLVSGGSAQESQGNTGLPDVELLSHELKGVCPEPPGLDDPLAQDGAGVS

[4] = Drug level in rat brain at 10 mg/kg, po after 2 hrs; type: ADME, organism-based; set-up: dose 10 mg/kg, route oral; conditions: read-out: Drug uptake
[5] = Ratio of drug level in brain to plasma in rat at 10 mg/kg, po after 1 hr; type: ADME, organism-based; set-up: dose 10 mg/kg, route oral; conditions: brain and plasma, read-out: BPR
[6] = Plasma concentration in rat at 10 mg/kg, po after 4 hrs; type: ADME, organism-based; set-up: dose 10 mg/kg, route oral
Caco-2 = test: Ratio of permeability from apical to basolateral side over basolateral to apical side in human Caco-2 cells; type: ADME, cell-based
Adenosine receptor A3 = biological target: T2, Adenosine receptor A3 (Homo sapiens, UniProt P0DMS8); test: Inhibition of human adenosine A3 receptor
T2 sequence (P0DMS8 whole entry): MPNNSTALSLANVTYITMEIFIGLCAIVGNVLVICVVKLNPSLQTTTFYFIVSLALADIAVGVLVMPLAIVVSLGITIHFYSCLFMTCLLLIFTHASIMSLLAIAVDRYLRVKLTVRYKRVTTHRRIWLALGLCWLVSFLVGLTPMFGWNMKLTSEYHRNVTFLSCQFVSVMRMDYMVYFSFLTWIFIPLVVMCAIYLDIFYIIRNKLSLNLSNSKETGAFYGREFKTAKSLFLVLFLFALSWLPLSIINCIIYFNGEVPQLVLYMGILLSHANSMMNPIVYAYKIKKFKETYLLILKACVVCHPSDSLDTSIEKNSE

[7] = Tmax in rat at 10 mg/kg, po; type: ADME, organism-based; set-up: dose 10 mg/kg, route oral; conditions: in vivo
Rattus norvegicus [8] = test: Inhibition of haloperidol-induced catalepsy in rat assessed as reduction in descent latency at 10 mg/kg, po after 2 hrs; type: organism-based; set-up: dose 10 mg/kg, route oral; conditions: in vivo
Cytochrome P450 2C9 = Cytochrome P450 2C9 (Homo sapiens, UniProt P11712); test: Inhibition of CYP2C9; type: ADME
Cytochrome P450 2C9, sequence (P11712 whole entry): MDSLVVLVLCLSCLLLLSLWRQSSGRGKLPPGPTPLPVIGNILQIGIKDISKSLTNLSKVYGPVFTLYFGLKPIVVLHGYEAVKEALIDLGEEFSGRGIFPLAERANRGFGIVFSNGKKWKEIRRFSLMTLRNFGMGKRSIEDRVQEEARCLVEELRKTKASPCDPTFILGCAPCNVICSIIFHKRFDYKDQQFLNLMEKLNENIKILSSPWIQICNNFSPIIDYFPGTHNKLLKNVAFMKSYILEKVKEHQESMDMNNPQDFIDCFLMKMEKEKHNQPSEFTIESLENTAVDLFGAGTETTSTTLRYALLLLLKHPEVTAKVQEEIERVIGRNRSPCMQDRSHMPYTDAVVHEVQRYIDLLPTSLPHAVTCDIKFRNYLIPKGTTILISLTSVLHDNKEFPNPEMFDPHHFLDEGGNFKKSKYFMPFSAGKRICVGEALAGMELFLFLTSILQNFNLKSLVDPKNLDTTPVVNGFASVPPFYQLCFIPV

Cytochrome P450 2D6 = Cytochrome P450 2D6 (Homo sapiens, UniProt P10635); test: Inhibition of CYP2D6; type: ADME
Cytochrome P450 2D6, sequence (P10635 whole entry): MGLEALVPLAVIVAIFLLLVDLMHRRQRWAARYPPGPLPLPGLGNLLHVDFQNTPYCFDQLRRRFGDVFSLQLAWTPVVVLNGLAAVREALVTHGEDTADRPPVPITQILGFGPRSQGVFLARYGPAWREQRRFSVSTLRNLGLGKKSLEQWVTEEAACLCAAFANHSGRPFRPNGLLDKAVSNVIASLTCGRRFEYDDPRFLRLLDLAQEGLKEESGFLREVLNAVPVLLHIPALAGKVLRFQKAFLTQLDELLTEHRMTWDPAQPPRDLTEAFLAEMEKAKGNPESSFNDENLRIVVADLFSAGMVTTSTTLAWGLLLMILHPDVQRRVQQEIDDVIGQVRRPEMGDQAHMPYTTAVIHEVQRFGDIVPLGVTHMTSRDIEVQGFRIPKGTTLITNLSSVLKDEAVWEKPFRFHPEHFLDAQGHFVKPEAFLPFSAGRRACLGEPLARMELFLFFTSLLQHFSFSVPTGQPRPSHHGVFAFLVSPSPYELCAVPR

Rattus norvegicus [9] = test: Inhibition of haloperidol-induced catalepsy in rat assessed as reduction in descent latency at 30 mg/kg, po after 2 hrs; type: organism-based; set-up: dose 30 mg/kg, route oral; conditions: in vivo
Adenosine receptor A2a [10] = biological target: T1, Adenosine receptor A2a; test: Displacement of [3H]ZM241385 from human adenosine A2A receptor expressed in HEK293 cells; type: cell-based
[11] = Permeability across human Caco-2 cells; type: ADME, cell-based; conditions: read-out: permeability
Cytochrome P450 2C19 = Cytochrome P450 2C19 (Homo sapiens, UniProt P33261); test: Inhibition of CYP2C19; type: ADME
Cytochrome P450 2C19, sequence (P33261 whole entry): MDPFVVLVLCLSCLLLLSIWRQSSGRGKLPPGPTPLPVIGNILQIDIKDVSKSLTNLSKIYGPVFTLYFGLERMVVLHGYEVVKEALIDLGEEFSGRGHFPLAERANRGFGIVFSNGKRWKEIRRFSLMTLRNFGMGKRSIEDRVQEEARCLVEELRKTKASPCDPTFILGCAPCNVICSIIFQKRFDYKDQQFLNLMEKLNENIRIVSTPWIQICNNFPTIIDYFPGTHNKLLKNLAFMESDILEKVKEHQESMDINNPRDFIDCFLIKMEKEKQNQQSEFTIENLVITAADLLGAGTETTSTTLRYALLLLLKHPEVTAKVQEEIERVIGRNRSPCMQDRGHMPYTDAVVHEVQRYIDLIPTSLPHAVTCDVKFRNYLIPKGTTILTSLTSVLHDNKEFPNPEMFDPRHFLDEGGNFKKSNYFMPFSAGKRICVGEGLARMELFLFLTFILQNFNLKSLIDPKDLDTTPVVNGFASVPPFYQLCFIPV

[12] = Solubility at pH 7.4; type: physicochemical; conditions: buffer
[13] = Plasma concentration in rat at 10 mg/kg, po after 1 hr; type: ADME, organism-based; set-up: dose 10 mg/kg, route oral
[14] = Drug level in rat brain at 3 mg/kg, po after 2 hrs; type: ADME, organism-based; set-up: dose 3 mg/kg, route oral; conditions: read-out: Drug uptake
Cytochrome P450 3A4 = Cytochrome P450 3A4 (Homo sapiens, UniProt P08684); test: Inhibition of CYP3A4; type: ADME
Cytochrome P450 3A4, sequence (P08684 whole entry): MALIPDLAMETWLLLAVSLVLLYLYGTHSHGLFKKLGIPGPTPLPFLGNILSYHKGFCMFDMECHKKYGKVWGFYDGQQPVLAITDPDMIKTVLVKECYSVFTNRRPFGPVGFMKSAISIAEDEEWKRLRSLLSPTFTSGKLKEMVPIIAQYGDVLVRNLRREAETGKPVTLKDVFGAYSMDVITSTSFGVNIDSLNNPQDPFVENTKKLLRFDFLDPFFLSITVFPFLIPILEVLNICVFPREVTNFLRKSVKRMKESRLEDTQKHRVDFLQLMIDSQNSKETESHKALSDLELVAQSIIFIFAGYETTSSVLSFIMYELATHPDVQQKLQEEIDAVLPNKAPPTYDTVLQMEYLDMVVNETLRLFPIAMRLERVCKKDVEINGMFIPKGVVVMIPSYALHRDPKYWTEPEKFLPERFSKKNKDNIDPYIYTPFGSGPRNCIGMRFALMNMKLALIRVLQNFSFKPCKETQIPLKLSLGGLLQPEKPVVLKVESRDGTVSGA

[15] = Ratio of drug level in brain to plasma in rat at 10 mg/kg, po after 4 hrs; type: ADME, organism-based; set-up: dose 10 mg/kg, route oral; conditions: brain and plasma, read-out: BPR
[16] = Drug level in rat brain at 10 mg/kg, po after 1 hr; type: ADME, organism-based; set-up: dose 10 mg/kg, route oral; conditions: read-out: Drug uptake
[17] = Ratio of drug level in brain to plasma in rat at 10 mg/kg, po after 2 hrs; type: ADME, organism-based; set-up: dose 10 mg/kg, route oral; conditions: brain and plasma
[18] = Drug level in rat brain at 10 mg/kg, po after 4 hrs; type: ADME, organism-based; set-up: dose 10 mg/kg, route oral; conditions: read-out: Drug uptake
[19] = Drug level in rat brain at 30 mg/kg, po after 2 hrs; type: ADME, organism-based; set-up: dose 30 mg/kg, route oral; conditions: read-out: Drug uptake
Rattus norvegicus [20] = test: Potentiation of […]-induced rotational behavior in unilateral 6-hydroxydopamine lesioned po dosed rat after 5 hrs; type: ADME, organism-based; conditions: in vivo
Adenosine receptor A2b = biological target: T3, Adenosine receptor A2b (Homo sapiens, UniProt P29275); test: Inhibition of human adenosine A2B receptor
T3 sequence (P29275 whole entry): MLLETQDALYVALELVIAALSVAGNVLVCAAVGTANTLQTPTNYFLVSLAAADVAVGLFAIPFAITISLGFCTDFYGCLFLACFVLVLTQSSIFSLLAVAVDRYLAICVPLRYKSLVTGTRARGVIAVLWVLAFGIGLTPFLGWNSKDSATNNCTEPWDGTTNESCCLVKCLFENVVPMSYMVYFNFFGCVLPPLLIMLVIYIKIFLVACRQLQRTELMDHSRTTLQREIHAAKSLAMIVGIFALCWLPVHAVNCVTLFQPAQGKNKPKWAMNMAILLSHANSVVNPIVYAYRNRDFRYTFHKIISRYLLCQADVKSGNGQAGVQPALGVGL

[21] = Plasma concentration in rat at 3 mg/kg, po after 2 hrs; type: ADME, organism-based; set-up: dose 3 mg/kg, route oral
[22] = Lipophilicity, log D of the compound; type: physicochemical; conditions: octanol/water
[23] = Ratio of drug level in brain to plasma in rat at 30 mg/kg, po after 2 hrs; type: ADME, organism-based; set-up: dose 30 mg/kg, route oral; conditions: brain and plasma
Cytochrome P450 1A2 = biological target: T4, Cytochrome P450 1A2 (Homo sapiens, UniProt P05177); test: Inhibition of CYP1A2; type: ADME
T4 sequence (P05177 whole entry): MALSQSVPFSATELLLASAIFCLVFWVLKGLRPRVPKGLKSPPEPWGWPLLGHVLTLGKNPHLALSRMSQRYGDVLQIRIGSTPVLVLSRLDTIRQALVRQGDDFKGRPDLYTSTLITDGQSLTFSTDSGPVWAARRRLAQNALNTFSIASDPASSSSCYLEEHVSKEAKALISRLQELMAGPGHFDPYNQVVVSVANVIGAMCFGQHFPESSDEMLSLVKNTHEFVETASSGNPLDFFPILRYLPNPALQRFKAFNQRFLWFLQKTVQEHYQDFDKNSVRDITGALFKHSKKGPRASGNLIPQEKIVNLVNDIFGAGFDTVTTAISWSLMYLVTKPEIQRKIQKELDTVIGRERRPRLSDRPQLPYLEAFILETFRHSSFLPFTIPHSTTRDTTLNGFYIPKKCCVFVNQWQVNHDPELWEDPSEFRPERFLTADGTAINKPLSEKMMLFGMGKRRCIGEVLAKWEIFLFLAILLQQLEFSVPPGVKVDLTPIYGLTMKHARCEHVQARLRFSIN

hERG (KCNH2) = hERG (KCNH2) (Homo sapiens, UniProt Q12809); test: Inhibition of human ERG at 10 uM by patch clamp technique
hERG (KCNH2), sequence (Q12809 whole entry): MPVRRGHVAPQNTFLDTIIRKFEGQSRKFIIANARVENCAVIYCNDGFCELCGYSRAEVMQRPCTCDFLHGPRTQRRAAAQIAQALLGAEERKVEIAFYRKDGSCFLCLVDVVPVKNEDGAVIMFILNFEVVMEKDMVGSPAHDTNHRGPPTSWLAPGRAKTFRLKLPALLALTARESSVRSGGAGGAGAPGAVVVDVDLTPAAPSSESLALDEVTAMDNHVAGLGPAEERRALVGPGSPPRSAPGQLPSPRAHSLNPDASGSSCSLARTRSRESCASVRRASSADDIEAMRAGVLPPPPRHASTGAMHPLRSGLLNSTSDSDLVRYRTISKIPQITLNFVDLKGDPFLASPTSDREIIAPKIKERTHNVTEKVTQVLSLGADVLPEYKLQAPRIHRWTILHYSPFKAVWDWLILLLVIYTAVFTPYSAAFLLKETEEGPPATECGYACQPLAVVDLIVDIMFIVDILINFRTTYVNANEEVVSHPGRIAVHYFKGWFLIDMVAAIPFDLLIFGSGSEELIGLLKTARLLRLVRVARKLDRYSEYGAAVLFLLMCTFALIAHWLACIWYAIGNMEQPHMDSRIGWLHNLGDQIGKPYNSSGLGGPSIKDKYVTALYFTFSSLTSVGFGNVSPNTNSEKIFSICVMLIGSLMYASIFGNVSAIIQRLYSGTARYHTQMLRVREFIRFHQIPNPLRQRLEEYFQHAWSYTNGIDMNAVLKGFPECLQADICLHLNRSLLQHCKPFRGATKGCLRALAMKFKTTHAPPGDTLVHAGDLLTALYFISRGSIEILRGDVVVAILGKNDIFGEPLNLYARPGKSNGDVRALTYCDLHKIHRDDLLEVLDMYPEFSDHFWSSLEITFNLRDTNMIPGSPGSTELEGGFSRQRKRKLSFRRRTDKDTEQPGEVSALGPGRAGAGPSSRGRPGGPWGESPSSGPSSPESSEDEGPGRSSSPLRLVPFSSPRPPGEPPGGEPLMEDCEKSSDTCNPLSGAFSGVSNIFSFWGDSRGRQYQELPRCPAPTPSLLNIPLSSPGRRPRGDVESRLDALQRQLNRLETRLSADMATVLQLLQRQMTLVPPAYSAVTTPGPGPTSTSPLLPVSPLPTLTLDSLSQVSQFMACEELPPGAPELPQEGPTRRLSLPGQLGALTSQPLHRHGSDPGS

Adenosine receptor A2a [24] = biological target: Adenosine receptor A2a (Rattus norvegicus, UniProt P30543); test: Displacement of [3H]ZM241385 from rat adenosine A2A receptor expressed in CHO cells; type: cell-based
Adenosine receptor A2a (Rattus norvegicus, UniProt P30543), sequence (P30543 whole entry): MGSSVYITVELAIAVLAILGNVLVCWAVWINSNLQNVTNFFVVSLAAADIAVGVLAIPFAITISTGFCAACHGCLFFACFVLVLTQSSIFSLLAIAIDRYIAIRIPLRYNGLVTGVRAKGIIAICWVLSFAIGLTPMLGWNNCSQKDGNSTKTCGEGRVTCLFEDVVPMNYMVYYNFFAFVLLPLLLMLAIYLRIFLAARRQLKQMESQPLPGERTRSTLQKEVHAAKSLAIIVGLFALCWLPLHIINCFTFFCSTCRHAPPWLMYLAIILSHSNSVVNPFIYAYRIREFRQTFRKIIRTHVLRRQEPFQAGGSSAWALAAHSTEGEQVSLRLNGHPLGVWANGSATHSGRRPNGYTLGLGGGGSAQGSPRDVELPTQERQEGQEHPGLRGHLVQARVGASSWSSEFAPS

[25] = Plasma concentration in rat at 10 mg/kg, po after 2 hrs; type: ADME, organism-based; set-up: dose 10 mg/kg, route oral
Adenosine receptor A1 = biological target: T5, Adenosine receptor A1 (Homo sapiens, UniProt P30542); test: Displacement of [3H]DPCPX from human adenosine A1 receptor expressed in HEK293 cells; type: cell-based
T5 sequence (P30542 whole entry): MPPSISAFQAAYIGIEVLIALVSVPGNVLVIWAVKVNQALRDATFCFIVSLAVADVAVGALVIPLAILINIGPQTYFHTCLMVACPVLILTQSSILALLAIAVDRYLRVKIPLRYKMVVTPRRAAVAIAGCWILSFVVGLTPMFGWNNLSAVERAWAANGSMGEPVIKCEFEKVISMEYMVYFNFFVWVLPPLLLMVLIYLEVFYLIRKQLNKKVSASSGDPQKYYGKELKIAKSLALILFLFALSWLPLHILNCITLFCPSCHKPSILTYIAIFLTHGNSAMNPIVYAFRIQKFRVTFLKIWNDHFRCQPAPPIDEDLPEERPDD

COC[C@H]1CCCN1c1cc(NC(C)=O)nc(-n2nc(C)cc2C)n1
concentration at 2 h [1]: 4640 ng/mL
Kp at 2 h [2]: 0.37
IC50 (Adenosine receptor A2a [3]): 85 nM
concentration at 2 h [4]: 488 ng/g
Kp at 1 h [5]: 0.51
concentration at 4 h [6]: 333 ng/mL
Ratio (Caco-2): 0.7
Ki (Adenosine receptor A3): 19 nM
Tmax [7]: 54 min
Activity (Rattus norvegicus [8]): Active
IC50 (Cytochrome P450 2C9): > 50000 nM
IC50 (Cytochrome P450 2D6): > 50000 nM
Activity (Rattus norvegicus [9]): Active
Ki (Adenosine receptor A2a [10]): 4.7 nM
Papp [11]: 70 ×10⁻⁶ cm/s
IC50 (Cytochrome P450 2C19): > 50000 nM
solubility [12]: 1000 µg/mL (≈ 2900 µM)
concentration at 1 h [13]: 1600 ng/mL
concentration at 2 h [14]: 34 ng/g
IC50 (Cytochrome P450 3A4): > 50000 nM
Kp at 4 h [15]: 0.33
concentration at 1 h [16]: 863 ng/g
Kp at 2 h [17]: 0.46
concentration at 4 h [18]: 116 ng/g
concentration at 2 h [19]: 2020 ng/g
Activity (Rattus norvegicus [20]): Dose-dependent effect
Ki (Adenosine receptor A2b): 145 nM
concentration at 2 h [21]: 98 ng/mL
logD [22]: 2.2
Kp at 2 h [23]: 0.45
IC50 (Cytochrome P450 1A2): 11000 nM
inhibition at 10 µM (hERG (KCNH2)): 19%
Ki (Adenosine receptor A2a [24]): 48 nM
concentration at 2 h [25]: 1060 ng/mL
Ki (Adenosine receptor A1): 162 nM
